These results are taken from patent publication US7893043B2, “2-methylene-(17Z)-17(20)-dehydro-19,21-dinor-vitamin D analogs” (Wisconsin Alumni Research Foundation, priority 2008, dated 2011).

The subject of test [1] is intestinal calcium transport. Description: Intestinal calcium transport, everted gut sac method. Type of test: in vivo, rat. As to conditions: for intestinal calcium transport: everted gut sac. As for the experimental part:
(§1) Male, weanling Sprague-Dawley rats were placed on Diet 11 (0.47% Ca) diet +AEK oil for one week followed by Diet 11 (0.02% Ca) +AEK oil for 3 weeks. The rats were then switched to a diet containing 0.47% Ca for one week followed by two weeks on a diet containing 0.02% Ca. Dose administration began during the last week on 0.02% calcium diet. Four consecutive ip doses were given approximately 24 hours apart. Twenty-four hours after the last dose, blood was collected from the severed neck and the concentration of serum calcium determined as a measure of bone calcium mobilization. The first 10 cm of the intestine was also collected for intestinal calcium transport analysis using the everted gut sac method.
Intestinal calcium transport was evaluated in the same groups of animals using the everted gut sac method (FIG. 5). […] Thus, it may be concluded that Vit II Z has essentially similar intestinal calcium transport activity at the recommended lower doses to that of 1,25(OH)2D3.

The subject of test [2] is HL-60 cells. The experiment in a line: HL-60 differentiation (nitro blue tetrazolium reduction). In kind it is cell-based, human. To be noted: differentiation of HL-60 cells into monocytes, FIG. 2, read-out: EC50, HL-60 cell differentiation. As for the experimental part: The study drugs were dissolved in ethanol and the concentrations determined using UV spectrophotometry. Serial dilutions were prepared so that a range of drug concentrations could be tested without changing the final concentration of ethanol (≦0.2%) present in the cell cultures.
Human promyelocytic leukemia (HL60) cells were grown in RPMI-1640 medium containing 10% fetal bovine serum. The cells were incubated at 37° C. in the presence of 5% CO2.
HL60 cells were plated at 1.2×10^5 cells/ml. Eighteen hours after plating, cells in duplicate were treated with drug. Four days later, the cells were harvested and a nitro blue tetrazolium reduction assay was performed (Collins et al., 1979; J. Exp. Med. 149:969-974). The percentage of differentiated cells was determined by counting a total of 200 cells and recording the number that contained intracellular black-blue formazan deposits. Verification of differentiation to monocytic cells was determined by measuring phagocytic activity (data not shown).

The subject of test [3] is bone calcium mobilization. The experiment in a line: Bone calcium mobilization (serum calcium) in vitamin D-deficient rats. Type of test: in vivo, rat. As for the experimental part: as §1
Calcium mobilization from bone and intestinal calcium absorption in vitamin D-deficient animals. Using vitamin D-deficient rats on a low calcium diet (0.02%), the activities of Vit II Z and 1,25(OH)2D3 in intestine and bone were tested. As expected, the native hormone (1,25(OH)2D3) increased serum calcium levels at all dosages (FIG. 4).

Test [4] has as its system 24-hydroxylase (24Ohase) gene promoter. The experiment in a line: In vitro transcription assay (24-hydroxylase promoter luciferase reporter in ROS 17/2.8 bone cells). In kind it is cell-based. As to conditions: ROS 17/2.8 cells, FIG. 3, read-out: EC50, transcriptional activity in bone cells. How it is done: Transcription activity was measured in ROS 17/2.8 (bone) cells that were stably transfected with a 24-hydroxylase (24Ohase) gene promoter upstream of a luciferase reporter gene (Arbour et al., 1998). Cells were given a range of doses. Sixteen hours after dosing the cells were harvested and luciferase activities were measured using a luminometer.
RLU=relative luciferase units.
(A reporter such as luciferase makes a cellular process visible.)

The target of test [5] is T1, full-length recombinant rat vitamin D receptor (Rattus norvegicus, UniProt P13053).
T1 construct: Full-length recombinant rat receptor was expressed in E. coli BL21 (DE3) Codon Plus RIL cells; histidine tag (C); made in house; host or cells: E. coli BL21 (DE3) Codon Plus RIL
T1 sequence (P13053 1-423): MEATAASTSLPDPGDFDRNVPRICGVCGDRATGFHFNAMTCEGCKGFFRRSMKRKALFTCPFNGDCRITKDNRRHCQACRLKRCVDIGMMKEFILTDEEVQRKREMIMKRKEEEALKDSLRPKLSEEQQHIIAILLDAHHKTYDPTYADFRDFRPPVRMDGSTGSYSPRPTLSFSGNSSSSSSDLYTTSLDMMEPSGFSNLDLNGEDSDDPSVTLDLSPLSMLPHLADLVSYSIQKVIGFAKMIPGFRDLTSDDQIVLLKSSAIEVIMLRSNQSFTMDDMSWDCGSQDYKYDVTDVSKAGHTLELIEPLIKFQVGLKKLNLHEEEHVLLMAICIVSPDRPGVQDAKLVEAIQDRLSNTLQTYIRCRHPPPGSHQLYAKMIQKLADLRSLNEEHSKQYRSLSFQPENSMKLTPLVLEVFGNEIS
The experiment in a line: Vitamin D receptor binding, competition with [3H]-1,25(OH)2D3. To be noted: FIG. 1. As for the experimental part:
Full-length recombinant rat receptor was expressed in E. coli BL21 (DE3) Codon Plus RIL cells and purified to homogeneity using two different column chromatography systems. The first system was a nickel affinity resin that utilizes the C-terminal histidine tag on this protein. The protein that was eluted from this resin was further purified using ion exchange chromatography (S-Sepharose Fast Flow). Aliquots of the purified protein were quick frozen in liquid nitrogen and stored at −80° C. until use. For use in binding assays, the protein was diluted in TEDK50 (50 mM Tris, 1.5 mM EDTA, pH7.4, 5 mM DTT, 150 mM KCl) with 0.1% Chaps detergent. The receptor protein and ligand concentration were optimized such that no more than 20% of the added radiolabeled ligand was bound to the receptor.
Radiolabeled and unlabeled ligands were added to 100 mcl of the diluted protein at a final ethanol concentration of ≦10%, mixed and incubated overnight on ice to reach binding equilibrium. The following day, 100 mcl of hydroxylapatite slurry (50%) was added to each tube and mixed at 10-minute intervals for 30 minutes. […] After the final wash, the pellets were transferred to scintillation vials containing 4 ml of Biosafe II scintillation cocktail, mixed and placed in a scintillation counter. Total binding was determined from the tubes containing only radiolabeled ligand.

“Also recorded” adds a separate entry of the source. Read-outs that look alike come from different tables or passages of the source.

The term EC50 denotes the concentration giving half of the maximal effect. Turning to `C=C1/C(=C\C=C2/CCC[C@]3(C)[C@@H]([C@H](C)CCCC(C)(C)O)CC[C@@H]23)C[C@@H](O)C[C@@H]1O` [1α,25-dihydroxyvitamin D3, reference compound], the intestinal calcium transport result in test [1] (at the tested doses) was “significant increase”. The EC50 in test [2] was found to be 2 nM; in test [4], 0.2 nM. For the same compound, in test [3] (all dosages, rats on 0.02% Ca diet, FIG. 4), the serum calcium levels result is recorded as “increased”.

The term Ki denotes a dissociation constant, usually derived from enzyme kinetics or from competition with a known ligand. Turning to `C=C1[C@H](O)CC(=C/C=C2\CCC[C@]3(C)/C(=C\CCCC(C)(C)O)CC[C@@H]23)C[C@H]1O` [Vit II Z, 2-methylene-(17Z)-17(20)-dehydro-19,21-dinor-1α,25-dihydroxyvitamin D3], the intestinal calcium transport result in test [1] (29 pmol/day) was “promotes intestinal calcium transport”; in test [1] (2340 pmol/day), “very significant intestinal calcium transport activity”. Also, in test [1] (vitamin D-deficient rats, ip, FIG. 5), the “intestinal calcium transport activity compared to 1,25(OH)2D3” value is “about the same or equal activity; also recorded: about the same as or equal to”. For the same compound, the EC50 in test [2] (Homo sapiens) was found to be 0.08 nM; in test [4], 0.03 nM. Moreover, the “bone calcium mobilization activity compared to 1,25(OH)2D3” value is “about the same as or equal to” in test [3] (87 pmol/day and 780 pmol/day for 4 consecutive days, rats on 0.02% Ca diet); “about the same or equal bone calcium mobilization activity” in test [3] (vitamin D-deficient rats, ip, FIG. 4). Moreover, in test [3] (2340 pmol/day, rats on 0.02% Ca diet), the “bone calcium mobilization, effect of increasing the dose” value was “without any substantial additional effect”. For the same compound, the “VDR binding affinity compared to 1,25-(OH)2D3” value in test [5] was “nearly the same affinity”. In addition, the Ki in test [5] (full-length recombinant rat VDR) stood at 0.2 nM.
